Test results: ChEMBL document CHEMBL1201862, “PubChem BioAssay data set” (2004)
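These data come from cells grown in 96-well plates and exposed to compound for 48 hours at five concentrations. GI50 = concentration required for 50% inhibition of growth.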 Activity calls are given as the source filed them. No stated cut-off is given here; in the data, active = GI50 up to about 1.1 µM and inactive = higher. Starred links: 1 amine or outer side, 2 acyl side, 3 side chain; linkers in the order of their positions; H or OH if unused. Positions of bridges follow the written chain, without caps; N, C: chain ends. Non-standard residues stand in square brackets, D forms with d. Residues, ends and D or L forms follow the SMILES beside them. Chains are numbered I, II in the order given. Actinocin(9to1) = Cc1c2oc3c(C)ccc(C(=O)[*:1])c3nc-2c(C(=O)[*:2])c(N)c1=O; NMeV = CN[CH](C(=O)O)C(C)C; Sar = CNCC(=O)O

Key:
Experiment in all cases: DTP human tumour cell line panel, 48 h
[1] = system: MCF7
[2] = system: SF-295
[3] = system: M14
[4] = system: SK-MEL-28
[5] = system: IGROV-1
[6] = system: UACC-257
[7] = system: CAKI-1
[8] = system: K562
[9] = system: SR
[10] = system: TK-10
[11] = system: CCRF-CEM
[12] = system: RPMI-8226
[13] = system: HCT-116
[14] = system: UO-31
[15] = system: SW-620
[16] = system: NCI-H226
[17] = system: T47D
[18] = system: NCI-H460
[19] = system: RXF 393
[20] = system: SF-539

Measured: GI50

CN1C(C)(C)CC(=O)C(Br)C1(C)C (stereo not given)
inactive: [1] > 100 µM | [2] > 100 µM | [3] > 100 µM | [4] > 100 µM | [5] > 100 µM | [6] > 100 µM | [7] > 100 µM | [8] > 100 µM | [9] > 100 µM | [10] > 100 µM | [11] > 100 µM | [12] > 100 µM | [13] > 10 µM | [14] > 100 µM | [15] > 100 µM | [16] > 100 µM | [17] > 100 µM | [18] > 100 µM

Cn1c2ccc(C3=NCCN3)cc2c2cc(C3=NCCN3)ccc21
inactive: [2] 42.8 µM | [3] 48.6 µM | [4] 24 µM | [5] 24.5 µM | [6] 43.8 µM | [7] > 100 µM | [8] 26.4 µM | [9] 18.2 µM | [10] 60.3 µM | [12] 24.6 µM | [13] 21.9 µM | [14] 56.1 µM | [15] 17.6 µM | [19] 34.3 µM | [20] 29.4 µM | [16] 30.1 µM | [17] 7.89 µM | [18] 5.38 µM
active: [11] < 0.01 µM

c1cc2c(s1)-c1sccc1C21OCCO1
inactive: [1] 49.9 µM | [2] > 100 µM | [3] > 100 µM | [4] > 100 µM | [6] 45.6 µM | [7] > 100 µM | [8] > 100 µM | [9] > 100 µM | [10] > 100 µM | [11] > 100 µM | [12] 81.7 µM | [13] 58.9 µM | [14] > 100 µM | [20] > 100 µM | [16] > 100 µM | [17] 17.3 µM | [18] > 100 µM

Cc1nc2ccccc2n1Cc1nnc2n1N=C(c1ccccc1)CS2
inactive: [1] 27.4 µM | [2] 43.1 µM | [3] 32.8 µM | [4] 50.1 µM | [5] 2.4 µM | [6] 22.5 µM | [7] 37.2 µM | [10] 40.1 µM | [11] 27.9 µM | [12] 17.7 µM | [13] 27.7 µM | [14] 38.2 µM | [15] 34.4 µM | [20] 12.5 µM | [16] > 100 µM | [17] 10.6 µM | [18] 33.5 µM

O=C(O)COc1ccc(C(=O)/C(SS/C(C(=O)c2ccc(OCC(=O)O)c(Cl)c2Cl)=C2\C=C(c3ccc(Br)cc3)SS2)=C2/C=C(c3ccc(Br)cc3)SS2)c(Cl)c1Cl
active: [1] 0.0513 µM
inactive: [2] 5.58 µM | [3] 11.1 µM | [4] 24.8 µM | [5] 4.99 µM | [6] 25.3 µM | [7] 13.6 µM | [8] 2.92 µM | [10] 26.7 µM | [11] 3.21 µM | [12] 4.73 µM | [13] 3.9 µM | [14] 4.32 µM | [15] 6.73 µM | [20] 4.3 µM | [16] 6.81 µM | [17] 2.3 µM | [18] 19.3 µM

O=[N+]([O-])c1ccc(-c2cn(-c3ccc(Cl)cc3)cn2)cc1
inactive: [1] 71.6 µM | [2] 18.7 µM | [3] > 100 µM | [4] > 100 µM | [5] 41.6 µM | [6] > 100 µM | [7] > 100 µM | [8] > 100 µM | [9] > 100 µM | [10] 40.3 µM | [11] > 100 µM | [12] 89.5 µM | [13] 27.4 µM | [14] 45 µM | [15] > 100 µM | [20] 3.8 µM | [16] 48.5 µM | [17] 44.2 µM | [18] 18.5 µM

CC(=O)O[C@H]1CC[C@H]2[C@@H]3CCC4=C/C(=N/OCCN(C)C)CC[C@]4(C)[C@H]3CC[C@]12C
inactive: [1] 5.64 µM | [2] 5.41 µM | [3] 3.18 µM | [4] 14.6 µM | [5] 13.1 µM | [6] 7.38 µM | [7] 14 µM | [8] 2.11 µM | [10] 11.3 µM | [11] 2.52 µM | [12] 1.2 µM | [13] 4.25 µM | [14] 14.9 µM | [15] 9.51 µM | [19] 12 µM | [20] 2.52 µM | [16] 3.8 µM | [17] 5.81 µM | [18] 8.22 µM

CCOC(=O)Cn1nnc2cc(Nc3c(C)[n+]([O-])c4cc(F)c(OCC)cc4[n+]3[O-])ccc21
inactive: [1] > 100 µM | [2] 38.3 µM | [3] > 100 µM | [4] > 100 µM | [5] 96.2 µM | [6] > 100 µM | [7] > 100 µM | [8] 7.16 µM | [10] 24.9 µM | [11] > 100 µM | [12] > 100 µM | [13] > 100 µM | [14] > 100 µM | [15] > 100 µM | [19] 31.8 µM | [20] > 100 µM | [16] > 100 µM | [17] > 100 µM | [18] > 100 µM

O=C1CCc2ccc3c(c21)CC1(Cc2ccccc2C1)C3
inactive: [1] 19.2 µM | [2] 3.72 µM | [3] 4.73 µM | [4] 4.37 µM | [5] 13.3 µM | [6] 5.48 µM | [7] 5.24 µM | [9] 3.58 µM | [10] 11.1 µM | [11] 10.6 µM | [12] 6.55 µM | [13] 3.98 µM | [14] 3.45 µM | [15] 4.47 µM | [20] 5.45 µM | [16] 19.1 µM | [17] 8.55 µM | [18] 2.57 µM

CC(=O)c1ccc(NCN2C(=O)c3ccccc3C2=O)cc1
inactive: [1] > 100 µM | [2] > 100 µM | [3] > 100 µM | [4] > 100 µM | [5] > 100 µM | [6] > 100 µM | [7] > 100 µM | [8] > 100 µM | [10] > 100 µM | [11] > 100 µM | [12] 66.5 µM | [13] > 100 µM | [14] > 100 µM | [15] > 100 µM | [19] > 100 µM | [20] > 100 µM | [17] > 100 µM | [18] > 100 µM

CCCCC[C@H]1CCCCCCCCCC(=O)OC2C(O[C@@H]3OC(C)[C@H](OC(=O)[C@@H](C)CC)C(O[C@@H]4OC(C)[C@H](O)C(O)[C@@H]4O)[C@@H]3OC(=O)[C@H](C)CC)[C@H](OC3C(O)[C@@H](O)C(C)O[C@H]3O1)OC(CO)[C@H]2O (stereo not given in full)
inactive: [1] 17.3 µM | [2] 18 µM | [3] 18.2 µM | [4] 16.1 µM | [5] 17.1 µM | [6] 15.8 µM | [7] 17.3 µM | [8] 18.8 µM | [9] 16.7 µM | [10] 20.1 µM | [11] 18.6 µM | [12] 16.8 µM | [13] 16.1 µM | [14] 16.1 µM | [15] 16.5 µM | [17] 17 µM | [18] 18.2 µM

O=C1CC(Sc2nc3ccc(I)cc3c(=O)n2Cc2ccccc2)C(=O)NN1 (stereo not given)
active: [14] 0.55 µM
inactive: [1] 15 µM | [2] 18.2 µM | [3] 19.6 µM | [4] 17.9 µM | [5] 11.8 µM | [6] 18.3 µM | [7] 2.81 µM | [8] 11.6 µM | [9] 2.73 µM | [10] 16.8 µM | [11] 8.28 µM | [12] 17 µM | [13] 15.7 µM | [15] 18 µM | [20] 18.2 µM | [16] 5.89 µM | [17] 15.2 µM | [18] 22.8 µM

Cc1c2oc3c(C)ccc(C(=O)NC4C(=O)NC(Cc5ccc(O)cc5)C(=O)N5CCCC5C(=O)N(C)CC(=O)N(C)C(C(C)C)C(=O)OC4C)c3nc-2c(C(=O)NC2C(=O)NC(Cc3ccc(O)cc3)C(=O)N3CCCC3C(=O)N(C)CC(=O)N(C)C(C(C)C)C(=O)OC2C)c(N)c1=O (stereo not given) (I: TYP[Sar][NMeV] / II: TYP[Sar][NMeV]; ester I:1-I:C, II:1-II:C; linker I:N-II:N via Actinocin(9to1); configuration not given here)
active: [1] 0.0805 µM | [2] 0.42 µM | [4] 0.365 µM | [5] 0.149 µM | [8] 0.354 µM | [12] 0.282 µM | [13] 0.11 µM | [15] 0.33 µM | [19] 0.406 µM | [20] 0.726 µM | [16] 0.957 µM | [18] 0.215 µM
inactive: [3] 2.55 µM | [6] 1.56 µM | [7] 3.57 µM | [10] 13.7 µM | [14] 17.9 µM | [17] 1.36 µM

O=C1c2cccnc2-c2nccc3c2c1nc1ccccc13 [ASCIDIDEMIN]
active: [1] 0.0708 µM | [2] 0.0798 µM | [3] 0.0466 µM | [4] 0.321 µM | [5] 0.31 µM | [6] 0.321 µM | [7] 0.215 µM | [8] 0.166 µM | [11] 0.501 µM | [12] 0.264 µM | [13] 0.0352 µM | [14] 0.143 µM | [15] 0.0705 µM | [19] 0.14 µM | [20] 0.189 µM | [16] 0.21 µM | [17] 0.29 µM | [18] 0.0879 µM
inactive: [10] 1.27 µM
